Measurements as given in patent US8940798B2, “Compounds useful for treating and/or preventing disease-associated bone loss” (Centre National de al Recherche Scientifique (CNRS), priority 2011, dated 2015).

Assays:
osteoclasts (OCs) = assay: Bone resorption assay, CTx concentration in medium of OCs on bovine bone slices; format: cell-based, mouse
Text: FIGS. 5A-5H: Inhibition of bone resorption by an inhibitor of Rac1 activation by Dock5. (FIG. 5A) Principle of the yeast exchange assay used to identify inhibitors of Dock5 exchange activity. Wild type Rac1 is fused to LexA DNA binding domain (LexA) and its effector Kinectin (Kin) to GAL4 activation domain (GAD). Expression of Dock5-DHR2 activates Rac1, which binds to kinectin, leading to the expression of his3 and then yeast […] for histidine. Inhibitors of Dock5-DHR2 revert Rac1 activation. (FIG. 5B) Growth curves of yeasts expressing Rac1 and Kinectin with (open triangles) and without (dots) Dock5-DHR2, in medium complemented (plain lines) or not (dotted lines) with histidine. (FIG. 5C) Structure of N-(3,5-dichlorophenyl)benzensulfonamide (C21). (FIG. 5D) Western blots showing total and GTPbound Rac1 (upper panels) and GFP and GFP-fused Dock5-DHR2 in extracts of 293T cells treated for 1 hour with the indicated concentrations of C21 in the presence of 1% DMSO. […] (FIG. 5F) Number of OCs (OC) after a 24-hour incubation with the indicated concentrations of C21, expressed as a % of DMSO control (0 μM C21). […] Well image was reconstituted and resorbed areas were measured using MetaMorph 7.0 software (Molecular Devices). […] After 2 days, CTx concentrations were measured using Crosslap (IDS Nordic Bioscience). […]

GEF TrioN = biological target: T1, GEF TrioN (Homo sapiens, UniProt O75962); assay: Active (GTP-bound) Rac1 pull-down in 293T cells expressing GFP-fused TrioN; format: cell-based; details: HEK293T cells, treated for 1 hour, 1% DMSO, western blot
T1 construct: expressed in transfected cells; host or cells: 293T cells
Text: (§1) FIGS. 5A-5H: Inhibition of bone resorption by an inhibitor of Rac1 activation by Dock5. (FIG. 5A) Principle of the yeast exchange assay used to identify inhibitors of Dock5 exchange activity. Wild type Rac1 is fused to LexA DNA binding domain (LexA) and its effector Kinectin (Kin) to GAL4 activation domain (GAD). Expression of Dock5-DHR2 activates Rac1, which binds to kinectin, leading to the expression of his3 and then yeast […] for histidine. Inhibitors of Dock5-DHR2 revert Rac1 activation. (FIG. 5B) Growth curves of yeasts expressing Rac1 and Kinectin with (open triangles) and without (dots) Dock5-DHR2, in medium complemented (plain lines) or not (dotted lines) with histidine. (FIG. 5C) Structure of N-(3,5-dichlorophenyl)benzensulfonamide (C21). […] (FIG. 5F) Number of OCs (OC) after a 24-hour incubation with the indicated concentrations of C21, expressed as a % of DMSO control (0 μM C21). […] To activate Rac1, OCs at day 4 of differentiation were starved overnight in the presence of 2% serum, stimulated with 100 ng/ml M-CSF or lifted and replated onto vitronectin-coated plates for 30 minutes prior to lysis, and active Rac1 levels were measured G-LISA kit according to manufacturer's instructions (Cytoskeleton).

Dock5-DHR2 = biological target: T2, Dock5-DHR2 (Mus musculus, UniProt B2RY04); assay: Active (GTP-bound) Rac1 pull-down in 293T cells expressing GFP-fused Dock5-DHR2; format: cell-based; details: HEK293T cells, treated for 1 hour, 1% DMSO, western blot
T2 construct: Dock5 DHR2 domain (aminoacids E1119 to L1667) was cloned into pEGFP (Clontech) or myc tagged in pRs426Met (21); expressed in transfected cells; host or cells: HEK-293T cells
T2 sequence (B2RY04 1119-1667): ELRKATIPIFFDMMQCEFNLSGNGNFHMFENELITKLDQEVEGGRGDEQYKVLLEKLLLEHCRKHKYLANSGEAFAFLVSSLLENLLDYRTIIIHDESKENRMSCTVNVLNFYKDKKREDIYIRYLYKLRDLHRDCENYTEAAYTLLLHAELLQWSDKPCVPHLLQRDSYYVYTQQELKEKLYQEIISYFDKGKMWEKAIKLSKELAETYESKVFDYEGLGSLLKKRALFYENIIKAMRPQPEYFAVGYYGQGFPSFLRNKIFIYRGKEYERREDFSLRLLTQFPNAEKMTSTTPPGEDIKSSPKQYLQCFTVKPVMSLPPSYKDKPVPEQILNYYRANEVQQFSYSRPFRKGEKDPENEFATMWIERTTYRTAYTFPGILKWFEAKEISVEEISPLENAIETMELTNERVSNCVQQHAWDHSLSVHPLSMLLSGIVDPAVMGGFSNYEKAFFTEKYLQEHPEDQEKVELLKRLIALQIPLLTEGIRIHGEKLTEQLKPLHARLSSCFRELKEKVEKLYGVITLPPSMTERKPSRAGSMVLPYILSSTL
Text: as §1

`O=S(=O)(Nc1cc(Cl)cc(Cl)c1)c1ccccc1` [C21, N-(3,5-dichlorophenyl)benzenesulfonamide] was tested, and the “Bone resorption, CTx concentration in the culture medium of OCs” value (osteoclasts (OCs); 25 μM C21, OCs on bone) was “efficiently inhibits”, the “Bone resorption by OCs in vitro, CTx production per OC, dose response” value (osteoclasts (OCs); dose response experiment) was “efficiently inhibits bone resorption” and the “Rac1 activation by the GEF TrioN” value (GEF TrioN) was “no effect”. The “Activation of Rac1 by Dock5-DHR2” value (Dock5-DHR2) was “efficiently inhibits”.
